The assay has as its target T1, cloned human H3 receptors (Homo sapiens, UniProt Q9Y5N1).
T1 construct: expressed in transfected cells
Nature of the assay: H3 Receptor Binding (Human). The procedure:
H3 Receptor Binding (Human)
Binding of compounds to the cloned human H3 receptors, stably expressed in SK-N-MC cells, was performed as described by Barbier, A. J. et al. (Br. J. Pharmacol. 2004, 143(5), 649-661).

[1] abbreviates: cloned human H3 receptors stably expressed in SK-N-MC cells, average of the results obtained, read-out: Human H3 Ki.
Where [2] appears, read: bromo-pyridine intermediates (Step A), value given in the synthesis, read-out: Assay 1 (Human H3): Ki.

Structures are written as SMILES. pKi: −log10 of the molar value. Where a name gives a salt, the structure may show the parent alone. Read-outs that look alike come from different tables or passages of the source.

Broadly, the pKi is the Ki on a negative log10 scale, so that one unit is a factor of ten.

T1 sequence (Q9Y5N1 whole entry): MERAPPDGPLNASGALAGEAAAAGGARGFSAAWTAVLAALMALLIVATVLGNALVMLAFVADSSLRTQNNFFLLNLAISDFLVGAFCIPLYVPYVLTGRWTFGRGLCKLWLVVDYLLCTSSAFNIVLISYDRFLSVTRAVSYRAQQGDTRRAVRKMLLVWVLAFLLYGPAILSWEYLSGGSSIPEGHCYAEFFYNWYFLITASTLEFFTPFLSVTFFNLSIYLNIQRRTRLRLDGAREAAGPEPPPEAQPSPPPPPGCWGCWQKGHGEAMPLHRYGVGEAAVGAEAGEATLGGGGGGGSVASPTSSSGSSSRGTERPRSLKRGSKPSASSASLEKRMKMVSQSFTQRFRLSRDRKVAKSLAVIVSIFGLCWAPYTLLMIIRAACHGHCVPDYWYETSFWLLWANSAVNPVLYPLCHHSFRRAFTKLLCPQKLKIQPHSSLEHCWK

With `CC(C)N1CCN(C(=O)c2ccc(Oc3ccc(Cl)c(Cl)c3)c(C(N)=O)n2)CC1` [Example 54, 3-(3,4-Dichloro-phenoxy)-6-(4-isopropyl-piperazine-1-carbonyl)-pyridine-2-carboxylic acid amide trifluoroacetic acid salt], the pKi under setting [1] is 6.98.
`CSc1ccc(Oc2ccc(C(=O)N3CCCN(C(C)C)CC3)cn2)cc1C` [Example 42, (4-Isopropyl-[1,4]diazepan-1-yl)-[6-(3-methyl-4-methylsulfanyl-phenoxy)-pyridin-3-yl]-methanone]: under setting [1], the pKi was 7.92.
With `N#Cc1nc(C(=O)N2CCCN(C3CC3)CC2)ccc1Oc1ccc(Cl)c(Cl)c1` [Example 58, 6-(4-Cyclopropyl-[1,4]diazepane-1-carbonyl)-3-(3,4-dichloro-phenoxy)-pyridine-2-carbonitrile], the pKi under setting [1] is 8.00.
Regarding `CC(C)N1CCN(C(=O)c2ccc(Oc3cccc(C#N)c3)nc2)CC1` [Example 7, 3-[5-(4-Isopropyl-piperazine-1-carbonyl)-pyridin-2-yloxy]-benzonitrile], the pKi under setting [1] is 7.24.
In the case of `CC(C)N1CCN(C(=O)c2cccc(Oc3ccc(Cl)c(Cl)c3)n2)CC1` [Example 43, [6-(3,4-Dichloro-phenoxy)-pyridin-2-yl]-(4-isopropyl-piperazin-1-yl)-methanone], the pKi under setting [1] is 6.52.
Still for that read-out and setting: in the case of `CSc1ccc(Oc2ccc(C(=O)N3CCN(C(C)C)CC3)cn2)cc1` [Example 3, (4-Isopropyl-piperazin-1-yl)-[6-(4-methylsulfanyl-phenoxy)-pyridin-3-yl]-methanone] it was 7.18; in that of `CC(C)N1CCCN(C(=O)c2ccc(Oc3ccc(Cl)c(Cl)c3)nc2)CC1` [Example 15, [6-(3,4-Dichloro-phenoxy)-pyridin-3-yl]-(4-isopropyl-[1,4]diazepan-1-yl)-methanone], 8.10.
Same read-out and setting: under `O=C(c1ccc(Oc2ccccc2F)cn1)N1CCCN(C2CCC2)CC1` [Example 72, (4-Cyclobutyl-[1,4]diazepan-1-yl)-[5-(2-fluoro-phenoxy)-pyridin-2-yl]-methanone] stands 8.70; under `Cc1cc(Oc2ccc(C(=O)N3CCN(C(C)C)CC3)cn2)ccc1Cl` [Example 6, [6-(4-Chloro-3-methyl-phenoxy)-pyridin-3-yl]-(4-isopropyl-piperazin-1-yl)-methanone], 7.49; under `Cc1cc(Oc2cccc(C(=O)N3CCCN(C4CCC4)CC3)n2)ccc1Cl` [Example 48, [6-(4-Chloro-3-methyl-phenoxy)-pyridin-2-yl]-(4-cyclobutyl-[1,4]diazepan-1-yl)-methanone trifluoroacetic acid salt], 7.17.
Turning to `O=C(c1ccc(Oc2ccccc2F)nc1)N1CCN(C2CCCC2)CC1` [Example 78], the pKi under setting [1] was 7.62.
Same read-out and setting: under `O=C(c1cccc(Oc2ccc(Cl)c(Cl)c2)n1)N1CCCN(C2CCC2)CC1` [Example 45, (4-Cyclobutyl-[1,4]diazepan-1-yl)-[6-(3,4-dichloro-phenoxy)-pyridin-2-yl]-methanone] stands 7.47; under `O=C(c1ccc(Oc2ccc(F)cc2)cn1)N1CCCN(C2CCC2)CC1` [Example 69, (4-Cyclobutyl-[1,4]diazepan-1-yl)-[5-(4-fluoro-phenoxy)-pyridin-2-yl]-methanone trifluoroacetic acid salt], 8.70; under `Cc1cc(Oc2ccc(C(=O)N3CCCN(C4CCC4)CC3)cn2)ccc1Cl` [Example 16, [6-(4-Chloro-3-methyl-phenoxy)-pyridin-3-yl]-(4-cyclobutyl-[1,4]diazepan-1-yl)-methanone], 8.70.
For `CCN1CCCN(C(=O)c2ccc(Oc3ccc(F)cc3)nc2)CC1` [Example 98, (4-Ethyl-[1,4]diazepan-1-yl)-[6-(4-fluoro-phenoxy)-pyridin-3-yl]-methanone], under setting [1], the pKi was 7.72.
The same measure, in the same setting: in the case of `CC(C)N1CCN(C(=O)c2ccc(Oc3ccc(F)cc3)nc2)CC1` [Example 99, [6-(4-Fluoro-phenoxy)-pyridin-3-yl]-(4-isopropyl-piperazin-1-yl)-methanone] it was 7.55.
Take `O=C(c1cccc(Br)n1)N1CCCN(C2CCC2)CC1` [(6-Bromo-pyridin-2-yl)-(4-cyclobutyl-[1,4]diazepan-1-yl)-methanone]: the pKi under setting [2] was 7.48.
Regarding `CC(C)N1CCN(C(=O)c2ccc(Oc3ccc(Cl)cc3)nc2)CC1` [Example 8, [6-(4-Chloro-phenoxy)-pyridin-3-yl]-(4-isopropyl-piperazin-1-yl)-methanone], under setting [1], the pKi was 7.17.
For the compound `O=C(c1ccc(Br)cn1)N1CCCN(C2CCC2)CC1` [(5-Bromo-pyridin-2-yl)-(4-cyclobutyl-[1,4]diazepan-1-yl)-methanone], the pKi under setting [2] was 7.96.
With `N#Cc1nc(C(=O)N2CCCN(C3CCC3)CC2)ccc1Oc1ccc(F)cc1` [Example 82, 6-(4-Cyclobutyl-[1,4]diazepane-1-carbonyl)-3-(4-fluoro-phenoxy)-pyridine-2-carbonitrile], the pKi under setting [1] was 9.00.
Same read-out and setting: under `O=C(c1ccc(Oc2ccccc2Cl)nc1)N1CCN(C2CCCC2)CC1` [Example 76, [6-(2-Chloro-phenoxy)-Pyridin-3-yl]-(4-cyclopentyl-piperazin-1-yl)-methanone] stands 7.72.
For the compound `CN1CCCN(C(=O)c2ccc(Oc3ccc(F)cc3)nc2)CC1` [Example 92, [6-(4-Fluoro-phenoxy)-pyridin-3-yl]-(4-methyl-[1,4]diazepan-1-yl)-methanone], the pKi under setting [1] is 6.60.
`CC(C)N1CCN(C(=O)c2ccc(Oc3cccnc3)nc2)CC1` [Example 2, (4-Isopropyl-piperazin-1-yl)-[6-(pyridin-3-yloxy)-pyridin-3-yl]-methanone]: under setting [1], the pKi was 7.25.
Regarding `Cc1cc(Oc2cccc(C(=O)N3CCCN(C4CC4)CC3)n2)ccc1Cl` [Example 47, [6-(4-Chloro-3-methyl-phenoxy)-pyridin-2-yl]-(4-cyclopropyl-[1,4]diazepan-1-yl)-methanone trifluoroacetic acid salt], under setting [1], the pKi is 6.45.
Turning to `Cc1cccc(Oc2ccc(C(=O)N3CCCN(C4CCC4)CC3)cn2)c1` [Example 103, (4-Cyclobutyl-[1,4]diazepan-1-yl)-(6-m-tolyloxy-pyridin-3-yl)-methanone], the pKi under setting [1] was 9.00.
In the case of `CSc1ccc(Oc2ccc(C(=O)N3CCCN(C4CC4)CC3)nc2C#N)cc1` [Example 55, 6-(4-Cyclopropyl-[1,4]diazepane-1-carbonyl)-3-(4-methylsulfanyl-phenoxy)-pyridine-2-carbonitrile], under setting [1], the pKi was 7.68.
The same measure, in the same setting: under `CC(C)N1CCCN(C(=O)c2cccc(Oc3ccc(Cl)c(Cl)c3)n2)CC1` [Example 46, [6-(3,4-Dichloro-phenoxy)-pyridin-2-yl]-(4-isopropyl-[1,4]diazepan-1-yl)-methanone] stands 6.69; under `CC(C)N1CCCN(C(=O)c2ccc(Oc3cccc(F)c3)nc2)CC1` [Example 38, [6-(3-Fluoro-phenoxy)-pyridin-3-yl]-(4-isopropyl-[1,4]diazepan-1-yl)-methanone], 8.22; under `CC(C)CN1CCN(C(=O)c2ccc(Oc3ccc(F)cc3)nc2)CC1` [Example 93, [6-(4-Fluoro-phenoxy)-pyridin-3-yl]-(4-isobutyl-piperazin-1-yl)-methanone], 7.24.
As for `N#Cc1nc(C(=O)N2CCCN(C3CC3)CC2)ccc1Oc1cccc(F)c1` [Example 60, 6-(4-Cyclopropyl-[1,4]diazepane-1-carbonyl)-3-(3-fluoro-phenoxy)-pyridine-2-carbonitrile], the pKi under setting [1] is 7.54.
Consider `CC(C)N1CCN(C(=O)c2cccc(Br)n2)CC1` [(6-Bromo-pyridin-2-yl)-(4-isopropyl-piperazin-1-yl)-methanone], for which the pKi under setting [2] was 5.85.
Take `CC(C)N1CCN(C(=O)c2ccc(Oc3cccc(Cl)c3)nc2)CC1` [Example 4, [6-(3-Chloro-phenoxy)-pyridin-3-yl]-(4-isopropyl-piperazin-1-yl)-methanone]: the pKi under setting [1] is 7.25.
Consider `CC(C)N1CCCN(C(=O)c2ccc(Br)cn2)CC1` [(5-Bromo-pyridin-2-yl)-(4-isopropyl-[1,4]diazepan-1-yl)-methanone], for which, under setting [2], the pKi is 6.71.
Consider `O=C(c1ccc(Oc2ccc(F)cc2)nc1)N1CCN(C2CCC2)CC1` [Example 79, (4-Cyclobutyl-piperazin-1-yl)-[6-(4-fluoro-phenoxy)-pyridin-3-yl]-methanone], for which the pKi under setting [1] was 8.00.
For the compound `N#Cc1nc(C(=O)N2CCCN(C3CC3)CC2)ccc1Oc1ccccc1` [Example 81, 6-(4-Cyclopropyl-[1,4]diazepane-1-carbonyl)-3-phenoxy-pyridine-2-carbonitrile], the negative logarithm of the Ki (pKi) under setting [1] is 8.52.
Still for that read-out and setting: under `Cc1cc(Oc2ccc(C(=O)N3CCCN(C(C)C)CC3)cn2)ccc1Cl` [Example 17, [6-(4-Chloro-3-methyl-phenoxy)-pyridin-3-yl]-(4-isopropyl-[1,4]diazepan-1-yl)-methanone] stands 8.30; under `CSc1ccc(Oc2ccc(C(=O)N3CCCN(C4CC4)CC3)nc2C(N)=O)cc1` [Example 62, 6-(4-Cyclopropyl-[1,4]diazepane-1-carbonyl)-3-(4-methylsulfanyl-phenoxy)-pyridine-2-carboxylic acid amide], 7.44.
As to `O=C(c1ccc(Sc2ccc(F)cc2)nc1)N1CCCN(C2CCC2)CC1` [Example 97, (4-Cyclobutyl-[1,4]diazepan-1-yl)-[6-(4-fluoro-phenylsulfanyl)-pyridin-3-yl]-methanone], the pKi under setting [1] is 9.00.
Still for that read-out and setting: under `O=C(c1ccc(Oc2cc(Cl)cc(Cl)c2)nc1)N1CCCN(C2CCC2)CC1` [Example 33, (4-Cyclobutyl-[1,4]diazepan-1-yl)-[6-(3,5-dichloro-phenoxy)-pyridin-3-yl]-methanone] stands 9.00.
As for `O=C(c1ccc(Oc2ccc(F)cc2)nc1)N1CCN(C2CC2)CC1` [Example 22, (4-Cyclopropyl-piperazin-1-yl)-[6-(4-fluoro-phenoxy)-pyridin-3-yl]-methanone], the pKi under setting [1] is 6.74.

The record behind these values is US8940731B2, “Substituted pyridyl amide compounds as modulators of the histamine H3 receptor” (Janssen Pharmaceutica NV, priority 2006, dated 2015).
